This note sets out measurements from ChEMBL document CHEMBL5131391, “One-pot three-component synthesis of novel pyrazolo[3,4-b]pyridines as potent antileukemic agents” (Eur J Med Chem, 2022).

Calls of active or inactive are those of the source. No cut-off for these calls is given here. Some results are limits rather than exact numbers.

By IC50 is commonly meant the point on the concentration scale where inhibition reaches its midpoint.

One assay relates to K562. Put plainly: Antiproliferative activity against human K562 cells assessed as reduction in cell viability incubated for 72 hrs by resazurin dye based assay. The class given is functional. The note with it: K562, 72 h. (In general: Resazurin is reduced to fluorescent resorufin, in cell work by metabolically active cells.)
A further assay has as its system MV4-11. The assay is described as follows: Antiproliferative activity against human MV4-11 cells assessed as reduction in cell viability incubated for 72 hrs by resazurin dye based assay. The note with it: MV4-11, 72 h. The class given is functional.
The subject of another assay is CCRF-CEM. The assay is described as follows: Antiproliferative activity against human CEM cells assessed as reduction in cell viability incubated for 72 hrs by resazurin dye based assay. Type of assay: functional.
In assay [1] the test system is RS4-11. Put plainly: Downregulation of MEIS1 protein expression in human RS4-11 cells at 5 to 20 uM measured after 24 hrs by Western blot analysis. Type of assay: functional, cell-based. The note with it: dose 5-20 µM. (In general: A western blot detects proteins with antibodies after separation by electrophoresis.)
Assay [2] has as its system RS4-11. The assay is described as follows: Induction of cell cycle arrest in human RS4-11 cells assessed as accumulation of cells in subG1 phase at 1.25 to 10 uM measured after 72 hrs by PI staining based flow cytometry analysis. The class given is functional. The note with it: dose 1.25-10 µM. On the technique in general: Flow cytometry measures light scatter and fluorescence of single cells or particles in a stream.

In assay [3] the test system is RS4-11. Put plainly: Induction of cell cycle arrest in human RS4-11 cells assessed as accumulation of cells in G2/M phase at 1.25 to 10 uM measured after 72 hrs by PI staining based flow cytometry analysis. The class given is functional. The conditions noted are these: dose 1.25-10 µM.
Assay [4] relates to RS4-11. The assay is described as follows: Antiproliferative activity against human RS4-11 cells assessed as reduction in cell viability incubated for 72 hrs by resazurin dye based assay. The class given is functional. The note with it: RS4-11, 72 h.
The subject of another assay is ML-2. Put plainly: Antiproliferative activity against human ML-2 cells assessed as reduction in cell viability incubated for 72 hrs by resazurin dye based assay. The class given is functional. The note with it: ML-2, 72 h.
The subject of the next assay is KOPN-8. The assay is described as follows: Antiproliferative activity against human KOPN-8 cells assessed as reduction in cell viability incubated for 72 hrs by resazurin dye based assay. The class given is functional. The note with it: KOPN-8, 72 h.
The test system of assay [5] is RS4-11. The assay is described as follows: Downregulation of HOXA9 protein expression in human RS4-11 cells at 5 to 20 uM measured after 24 hrs by Western blot analysis. The class given is functional, cell-based. The conditions noted are these: dose 5-20 µM.
The test system of assay [6] is RS4-11. Put plainly: Induction of cell cycle arrest in human RS4-11 cells assessed as accumulation of cells in G2/M phase measured after 48 hrs by PI staining based flow cytometry analysis. Type of assay: functional. The conditions noted are these: dose 1.25-10 µM, DDE = dose-dependent effect.

Regarding `COc1cc(-c2c(C#N)c(-c3cccs3)nc3c2c(-c2ccccc2)nn3-c2ccccc2)ccc1O`, the IC50 with K562 was 15.4 µM; in the assay on MV4-11, 44.2 µM; in the assay on CCRF-CEM, 37.3 µM.
In the same order, the values of `N#Cc1c(-c2cccs2)nc2c(c(-c3ccccc3)nn2-c2ccccc2)c1-c1ccc(O)cc1` are 11.6 µM, 34.2 µM and over 25 µM.
For `N#Cc1c(-c2ccc(F)cc2)nc2c(c(-c3ccccc3)nn2-c2ccccc2)c1-c1ccc(O)cc1`, the IC50 was 10.2 µM in the assay with K562; 9.9 µM in the assay with RS4-11 [4]; 6.7 µM in the assay on ML-2; 1300 nM in the assay with KOPN-8; 11.6 µM in the assay with MV4-11; over 25 µM in the assay with CCRF-CEM. Besides, the result with RS4-11 [1], with RS4-11 [2], in the assay with RS4-11 [3] and in the assay on RS4-11 [5] was Active.
Turning to `COc1ccc(-c2nc3c(c(-c4ccccc4)nn3-c3ccccc3)c(-c3ccc(O)cc3)c2C#N)cc1`, the Activity result with RS4-11 [6] is “Dde”. In addition, the IC50 in the assay with K562 worked out at 2.1 µM; with RS4-11 [4], 1 µM; in the assay with ML-2 it was 0.4 µM; with KOPN-8 it was 200 nM; with MV4-11, 1.6 µM; with CCRF-CEM it was 6.7 µM. For the same molecule, the outcome in the assay with RS4-11 [1], in the assay on RS4-11 [2], in the assay on RS4-11 [3] and in the assay on RS4-11 [5] was Active.
Regarding `Cc1ccc(-c2nc3c(c(-c4ccccc4)nn3-c3ccccc3)c(-c3ccc4c(c3)OCO4)c2C#N)cc1`, the IC50 in the assay with K562 came to 2 µM; in the assay with RS4-11 [4], 4.6 µM; in the assay on ML-2, 7.7 µM; with KOPN-8 it was 700 nM; with MV4-11 it was 5.1 µM; with CCRF-CEM, 23.9 µM. For the same molecule, the result in the assay with RS4-11 [1], in the assay with RS4-11 [2], with RS4-11 [3] and with RS4-11 [5] was Active.
Consider `COc1ccc(-c2c(C#N)c(-c3ccccc3)nc3c2c(-c2ccccc2)nn3-c2ccccc2)cc1OC`, for which the IC50 in the assay on K562, with MV4-11 and with CCRF-CEM was over 25 µM each time.
On to `N#Cc1c(-c2ccccc2)nc2c(c(-c3ccccc3)nn2-c2ccccc2)c1-c1ccc2c(c1)OCO2`, for which the IC50 is 5.9 µM with K562; over 25 µM in the assay on RS4-11 [4]; over 25 µM in the assay on ML-2; over 25000 nM in the assay with KOPN-8; over 25 µM in the assay with MV4-11; over 25 µM with CCRF-CEM.
